{"source": "patent US12661503B2", "about": "“Microcurrent-based skin treatment and pretreatment techniques” (NSE Products, Inc., priority 2022, dated 2026)", "key": {"[1]": {"test": "Franz cell transdermal penetration (receptor fluid) after electrical waveform pretreatment", "assay_type": "in vitro ADME, human or mammalian", "conditions": "for transdermal penetration of allantoin, six minute vs three minute pretreatment: CSW at 375, 250 and 125 μA (all current levels)", "text": "(§1) FIG. 7A is a schematic diagram of a Franz cell (or cell system) 700 adapted for testing permeability of a skin sample 710.\nAn electrical voltage can be applied to or across the sample 720 via an electrode 740 in contact with the skin sample 730, and a conducting lead 750 disposed in a sampling port 760. Suitable materials for electrode 740 and lead 750 include platinum, silver, copper, and other conducting metals, in porous mesh, wafer, plate, or wire form. A heater 770 can be provided to maintain temperature of the Franz cell 710, sample 720 and donor compound 730, during operation of the system 700.\nFIG. 7B is a schematic diagram of a Franz cell system 700 adapted for application of a microcurrent treatment to the skin sample 710. In this example, a galvanic unit or waveform generator 780 can be provided to apply a microcurrent waveform to the skin sample 720; e.g., via a negative polarity platinum wire 755 connected to a porous mesh or wafer electrode 740 on the skin surface, with opposite polarity (+) defined by a platinum lead wire or wire electrode 755. Different metals such as copper or silver can also be used, or other suitable conductors. The polarity can also be reversed, or the lead wire 750 can be used to define a ground potential for the Franz cell 710.\nRound one testing was performed for three electrical waveforms with allantoin in PBS (phosphate buffered saline) or the NBS agent. The goal was to compare the three electrical waveforms for their capacity to deliver the one or more components in the NBS v1.18 agent. The delivery was tracked via allantoin measurement, used as a skin penetration tracking marker.\n(§2) The study was conducted in two phases or parts. Round 1a (Round 1: Phase 1a) evaluated the penetration of 1.0% allantoin (an active) in PBS with a galvanic electrical waveform (GEWF), charge-balanced, symmetric electrical waveform (CSW), and a Program Random Pulse Width Modulation electrical waveform ([…]), in a Franz cell model. Details of the testing process includes receptor well collection and processing (Table 2A), and the epidermal and dermal retention protocol to assess penetration of the tracking markers (Table 2B).\nSamples and treatments included 1.0% allantoin in PBS, with no electrical stimulation. The skin sample was also pretreated with a GEWF (Galvanic Electrical waveform) in PBS for thirty-six minutes (36 m), followed by treatment with a PBS topical or agent containing 1.0% allantoin. Pretreatment was also applied with a charge-balanced, symmetric electrical waveform (CSW) in PBS for 36 m, followed by treatment with a PBS agent containing 1.0% allantoin, or treatment with a Program Random Pulse Width Modulation electrical waveform ([…]) in PBS for 36 m followed by application of a PBS agent with 1.0% allantoin.\nThe microcurrent dosage delivered ranged up to 375 microampere (μA) for a twelve minute cycle, repeated for three cycles. Receptor fluid collection was measured at time t=0 (before and immediately after the topical sample treatment), at the end of waveform cycle 1 (t=12 min), at the end of waveform cycle 3 (t=36 m); and at 1 hour (1 h), 6 h and 24 h intervals post-pretreatment with the electrical waveform and treatment with the selected topical agents.\nRound 1b (Round 1: Phase 1b) testing included evaluation of the NBS v1.18 agent with the GEWF (galvanic electrical waveform), CSW (charge-balanced, symmetric electrical waveform) and […] (Program Random Pulse Width Modulation electrical waveform), in a Franz cell model as described herein. Samples and treatments included the NBS v1.18 agent containing 0.1% allantoin, with no electrical stimulation. […]"}, "[2]": {"test": "Franz cell tracking marker flux after electrical waveform pretreatment", "assay_type": "in vitro ADME, human or mammalian", "text": "as §1\nFIG. 11A is a bar chart illustrating transdermal allantoin penetration, following selected current treatments. FIG. 11B is a bar chart illustrating allantoin retention in the epidermis and dermis, following the selected treatments. FIG. 11C is a bar chart illustrating allantoin flux, following the selected treatments. The Flus is in arbitrary units, for example μg/cm^2/hr, or other suitable, appropriate or convenient measure, as known in the art.\n(§3) The number of Franz cell replicates (Franz cells) per sample was n=3 for non-electrical pretreated samples, and n=6 for pulsed electrical pretreatment samples. The number of Franz cell replicates may also vary. The current flow (I) is given in microamperes (μA), and the pulse time (PT) in minutes (mi) where zeros indicate no electrical current, and no pulse time. In each case, the next include the sample being drawn off (draw off), and post pulse treatment/dosing with phosphate buffered saline (PBS) containing 1.0% allantoin. Assessment times were at post 0.5, 1.0, 6 and 24 hours (hr), assaying for allantoin."}, "[3]": {"test": "Franz cell epidermal and dermal retention of tracking marker", "assay_type": "in vitro ADME, human or mammalian"}, "[4]": {"tested_on": "upper thigh skin of subjects", "test": "Tape stripping assessment for allantoin recovery (LC-MS)", "assay_type": "in vivo", "conditions": "early tape strips one to five; treated vs untreated upper thigh; week twelve", "experimental": "Cellulite was further evaluated by measuring circumference of upper thigh during each visit. At the end of study completion at twelve weeks, twenty tape strips were removed from the treated upper thigh area of five subjects chosen […] and five control strips were obtained from an untreated site on the upper thigh.\nIn addition, the circumference of each subject's upper thigh was measured during each visit as an indicator for improvement in slimming and firmness (see M. H. Gold, K. A. Khatri, K. Hails, R. A. Weiss and N. Fournier, “Reduction in thigh circumference and improvement in appearance of cellulite,” J. of Cosmetic and Laser Therapy 13, February 2011, which is incorporated by reference herein, in the entirety and for all purposes). At the end of study, the twenty tape strips were collected from the treated upper thigh area, and from an untreated upper thigh area from five randomly chosen subjects. Five tape strips from both treated and untreated areas of upper thigh were evaluated for accumulation of allantoin using LC-MS spectroscopy.\nFIGS. 20A and 20B are scatter plots illustrating a tape stripping assessment for allantoin recovery in the upper thigh. The results include representative, anonymous, arbitrarily-labeled samples (S2 and S4), as compared to corresponding controls. […]"}, "[5]": {"test": "Franz cell epidermal and dermal retention of tracking marker", "assay_type": "in vitro ADME, human or mammalian", "experimental": "as §1, §2\nReceptor fluid collection was measured at time t=0 (before and immediately after the topical sample treatment), at the end of waveform cycle 1 (t=12 min), at the end of waveform cycle 3 (t=36 m); and at 1 hour (1 h), 6 h and 24 h intervals post-pretreatment with the electrical waveform and treatment with the selected topical agents.\nReceptor fluid collection was performed at time t=0 (before and immediately after topical sample treatment), at the end of waveform cycle one (12 m), at the end of waveform cycle three (36 m), and at 1 h, 6 h and 24 h intervals post pre-treatment with the electrical waveform, and treatment with the topical agent.\nas §3", "remark": "listed apart in the source"}, "[6]": {"conditions": "Round Three, FIG. 15B, 1.0% allantoin in PBS"}}, "note": "“Also recorded” adds a separate entry of the source. Like-named read-outs stand apart in the source and are kept apart here.", "data": [{"smiles": "NC(=O)NC1NC(=O)NC1=O", "note": "(stereo not shown) [allantoin]", "values": [{"measurement": "delivery of allantoin after electrical pre-treatment using conductive gel vs non-electrical pretreatment", "setting": "[1]; FIG. 11A, test #9 and #11 vs #10, conductive gel containing 1.0% allantoin, Ept-36 min", "result": 5}, {"measurement": "increase in transdermal penetration of allantoin", "setting": "[1]; Round 1a, FIG. 9A, 1.0% allantoin in PBS after 36 min pretreatment with galvanic, CSW or PRPWM waveform, up to 375 μA", "result": "fivefold increase"}, {"measurement": "increase in penetration after electrical pre-treatment using PBS vs non-electrical pretreatment, caffeine as tracking marker", "setting": "[1]; Round 2b, FIG. 13A, test #1 vs #2, Ept-36 min", "result": "greater than fivefold increase"}, {"measurement": "transdermal penetration of allantoin, six minute vs three minute pretreatment", "setting": "[1]; Round Four, FIG. 16A, NBS agent with 0.1% allantoin left on", "result": "increased transdermal penetration"}, {"measurement": "transdermal penetration of allantoin, six minute vs three minute pretreatment", "setting": "[1]; Round Three, FIG. 15A, 1.0% allantoin in PBS", "result": "increased transdermal penetration"}, {"measurement": "increase in penetration of allantoin upon electrical pre-treatment vs non-electrical pretreated sample with PBS (flux chart)", "setting": "[2]; FIG. 11C, test #3 vs #4", "result": "Greater than fivefold increase"}, {"measurement": "increase in skin allantoin delivery, electrical pre-treatment with conductive gel vs non-stimulated (flux chart)", "setting": "[2]; FIG. 11C, test #9 and #11 vs #10", "result": 5}, {"measurement": "increase in penetration upon electrical pre-treatment vs non-electrical pretreatment sample with PBS (flux chart)", "setting": "[2]; Round 2b (caffeine), FIG. 13C, test #1 vs #2", "result": "greater than fivefold increase"}, {"measurement": "allantoin flux, six minute vs three minute electrical pretreatment", "setting": "[2]; Round Four, FIG. 16C, all current levels, 0.5 h to 24 h after pretreatment", "result": "higher allantoin flux"}, {"measurement": "allantoin flux at later time point", "setting": "[2]; Round Three, FIG. 15C, 1-6 h", "result": "substantially no flux; also recorded: little or substantially no flux"}, {"measurement": "allantoin flux at initial time point", "setting": "[2]; Round Three, FIG. 15C, all current levels, 30 m to 1 h following pretreatment", "result": "increased allantoin flux"}, {"measurement": "increase in penetration of allantoin in both epidermis and dermis vs non-electrically stimulated sample with PBS", "setting": "[3]; FIG. 11B, test #3 vs #4", "result": "Greater than fivefold increase"}, {"measurement": "skin allantoin delivery in epidermis and dermis, electrically treated conductive gel vs non-stimulated", "setting": "[3]; FIG. 11B, test #9 and #11 vs #10", "result": 5}, {"measurement": "increase in penetration in both epidermis and dermis vs non-electrically stimulated sample with PBS", "setting": "[3]; Round 2b (caffeine), FIG. 13B, test #1 vs #2", "result": "greater than fivefold increase"}, {"measurement": "epidermal and dermal retention of allantoin, six minute vs three minute pretreatment", "setting": "[3]; Round Four, FIG. 16B, NBS 0.1% allantoin, about 375 μA", "result": "increased epidermal and dermal retention"}, {"measurement": "allantoin retention, three minute and six minute pretreatments", "setting": "[3]; Round Four, FIG. 16B, about 125 μA", "result": "comparable allantoin retention"}, {"measurement": "allantoin retention in the dermis", "setting": "[3]; Round Four, FIG. 16B, about 250 μA, six minute pretreatment", "result": "stimulate additional allantoin retention in the dermis"}, {"measurement": "allantoin retention in the epidermis", "setting": "[3]; Round Four, FIG. 16B, about 250 μA, three minute pretreatment", "result": "stimulate allantoin retention in the epidermis"}, {"measurement": "difference in allantoin retention in the dermis", "setting": "[3]; test #5 vs #6, NBS agent 0.1% allantoin, dermis", "result": "not necessarily a substantial difference"}, {"measurement": "allantoin recovered by tape stripping vs background (control) allantoin level", "setting": "[4]", "result": "increased over the background skin allantoin level"}, {"measurement": "allantoin retention in epidermis and dermis, GEWF vs CSW and PRPWMEWF", "setting": "[5]; Round 1a, FIG. 9B, 1.0% allantoin in PBS, 24 h", "result": "slightly more retention"}, {"measurement": "epidermal retention at pretreatment current of about 375 μA", "setting": "[5]; [6]", "result": "increased epidermal retention"}, {"measurement": "retention in the dermis at lower microcurrent levels (250 μA, 125 μA)", "setting": "[5]; [6]", "result": "higher retention in the dermis"}, {"measurement": "skin retention, six minute vs three minute pretreatment", "setting": "[5]; Round Three, FIG. 15B, all microcurrent levels", "result": "higher skin retention"}]}, {"smiles": "Cn1c(=O)c2c(ncn2C)n(C)c1=O", "note": "[caffeine]", "values": [{"measurement": "increase in penetration after electrical pre-treatment using PBS vs non-electrical pretreatment, caffeine as tracking marker", "setting": "[1]", "result": "greater than fivefold increase"}]}]}
